Source: patent US8592175B2, “Nitroreductase enzymatic substrates” (bioMérieux, S.A., priority 2009, dated 2013)

Key:
Assay in all cases: Color, fluorescence and growth of colonies on Columbia medium with nitroreductase substrate
Type in all cases: cell-based
[1] = tested on: Enterococcus faecium NCTC 7 171; parameters: key to Growth: NG: no growth; 0.5: low growth; 1: moderate growth; 2: good growth; key to Fluo.: fluorescence of the colonies / Col.: color of the colonies: —: no color/fluorescence; conditions: 40 mg substrate in 400 ml Columbia medium, 24 hours at 37° C.; for Fluo.: fluorescence of the colonies: UV lamp at 365 nm; for Col.: color of the colonies: examined visually
Description: (§1) 40 mg of each of the substrates were dissolved in 4 ml of dimethylsulfoxide and added to 400 ml of previously autoclaved Columbia medium. The 5 media were distributed in Petri dishes 90 mm in diameter at the rate of 20 ml per dish. Seventeen strains of microorganisms obtained from collections and belonging to various species of bacteria and yeasts are inoculated as spots of about 10 000 colony forming units. The media are incubated for 24 hours at 37° C. and then the colonies formed are examined visually and under a UV lamp at 365 nm.

[2] = tested on: Bacillus subtilis NCTC 9 372; parameters: key to Growth: NG: no growth; 0.5: low growth; 1: moderate growth; 2: good growth; key to Fluo.: fluorescence of the colonies / Col.: color of the colonies: —: no color/fluorescence; conditions: 40 mg substrate in 400 ml Columbia medium, 24 hours at 37° C.; for Col.: color of the colonies: examined visually; for Fluo.: fluorescence of the colonies: UV lamp at 365 nm
Description: as §1

[3] = tested on: Salmonella typhimurium NCTC 74; parameters: key to Growth: NG: no growth; 0.5: low growth; 1: moderate growth; 2: good growth; key to Fluo.: fluorescence of the colonies / Col.: color of the colonies: —: no color/fluorescence; conditions: 40 mg substrate in 400 ml Columbia medium, 24 hours at 37° C.; for Fluo.: fluorescence of the colonies: UV lamp at 365 nm; for Col.: color of the colonies: examined visually
Description: as §1

[4] = tested on: Enterococcus faecalis NCTC 775; parameters: key to Growth: NG: no growth; 0.5: low growth; 1: moderate growth; 2: good growth; key to Fluo.: fluorescence of the colonies / Col.: color of the colonies: —: no color/fluorescence; conditions: 40 mg substrate in 400 ml Columbia medium, 24 hours at 37° C.; for Fluo.: fluorescence of the colonies: UV lamp at 365 nm
Description: as §1

[5] = tested on: Listeria monocytogenes NCTC 11 994; parameters: key to Growth: NG: no growth; 0.5: low growth; 1: moderate growth; 2: good growth; key to Fluo.: fluorescence of the colonies / Col.: color of the colonies: —: no color/fluorescence; conditions: 40 mg substrate in 400 ml Columbia medium, 24 hours at 37° C.; for Fluo.: fluorescence of the colonies: UV lamp at 365 nm; for Col.: color of the colonies: examined visually
Description: as §1

[6] = tested on: Candida glabrata NCPF 3 943; parameters: key to Growth: NG: no growth; 0.5: low growth; 1: moderate growth; 2: good growth; key to Fluo.: fluorescence of the colonies / Col.: color of the colonies: —: no color/fluorescence; conditions: 40 mg substrate in 400 ml Columbia medium, 24 hours at 37° C.; for Col.: color of the colonies: examined visually; for Fluo.: fluorescence of the colonies: UV lamp at 365 nm
Description: as §1

[7] = tested on: Streptococcus pyogenes NCTC 8 306; parameters: key to Growth: NG: no growth; 0.5: low growth; 1: moderate growth; 2: good growth; key to Fluo.: fluorescence of the colonies / Col.: color of the colonies: —: no color/fluorescence; conditions: 40 mg substrate in 400 ml Columbia medium, 24 hours at 37° C.; for Col.: color of the colonies: examined visually; for Fluo.: fluorescence of the colonies: UV lamp at 365 nm
Description: as §1

[8] = tested on: Pseudomonas aeruginosa NCTC 10 662; parameters: key to Growth: NG: no growth; 0.5: low growth; 1: moderate growth; 2: good growth; key to Fluo.: fluorescence of the colonies / Col.: color of the colonies: —: no color/fluorescence; conditions: 40 mg substrate in 400 ml Columbia medium, 24 hours at 37° C.; for Col.: color of the colonies: examined visually; for Fluo.: fluorescence of the colonies: UV lamp at 365 nm
Description: as §1

[9] = tested on: Yersinia enterocolitica NCTC 11 176; parameters: key to Growth: NG: no growth; 0.5: low growth; 1: moderate growth; 2: good growth; key to Fluo.: fluorescence of the colonies / Col.: color of the colonies: —: no color/fluorescence; conditions: 40 mg substrate in 400 ml Columbia medium, 24 hours at 37° C.; for Col.: color of the colonies: examined visually; for Fluo.: fluorescence of the colonies: UV lamp at 365 nm
Description: as §1

[10] = tested on: Staphylococcus epidermidis NCTC 11 047; parameters: key to Growth: NG: no growth; 0.5: low growth; 1: moderate growth; 2: good growth; key to Fluo.: fluorescence of the colonies / Col.: color of the colonies: —: no color/fluorescence; conditions: 40 mg substrate in 400 ml Columbia medium, 24 hours at 37° C.; for Col.: color of the colonies: examined visually; for Fluo.: fluorescence of the colonies: UV lamp at 365 nm
Description: as §1

[11] = tested on: Candida albicans ATCC 90 028; parameters: key to Growth: NG: no growth; 0.5: low growth; 1: moderate growth; 2: good growth; key to Fluo.: fluorescence of the colonies / Col.: color of the colonies: —: no color/fluorescence; conditions: 40 mg substrate in 400 ml Columbia medium, 24 hours at 37° C.; for Col.: color of the colonies: examined visually; for Fluo.: fluorescence of the colonies: UV lamp at 365 nm
Description: as §1

[12] = tested on: Staphylococcus aureus NCTC 6 571; parameters: key to Growth: NG: no growth; 0.5: low growth; 1: moderate growth; 2: good growth; key to Fluo.: fluorescence of the colonies / Col.: color of the colonies: —: no color/fluorescence; conditions: 40 mg substrate in 400 ml Columbia medium, 24 hours at 37° C.; for Col.: color of the colonies: examined visually; for Fluo.: fluorescence of the colonies: UV lamp at 365 nm
Description: as §1

[13] = tested on: Providencia rettgeri NCTC 7 475; parameters: key to Growth: NG: no growth; 0.5: low growth; 1: moderate growth; 2: good growth; key to Fluo.: fluorescence of the colonies / Col.: color of the colonies: —: no color/fluorescence; conditions: 40 mg substrate in 400 ml Columbia medium, 24 hours at 37° C.; for Col.: color of the colonies: examined visually; for Fluo.: fluorescence of the colonies: UV lamp at 365 nm
Description: as §1

[14] = tested on: Staphylococcus aureus NCTC 11 939; parameters: key to Growth: NG: no growth; 0.5: low growth; 1: moderate growth; 2: good growth; key to Fluo.: fluorescence of the colonies / Col.: color of the colonies: —: no color/fluorescence; conditions: 40 mg substrate in 400 ml Columbia medium, 24 hours at 37° C.; for Col.: color of the colonies: examined visually; for Fluo.: fluorescence of the colonies: UV lamp at 365 nm
Description: as §1

[15] = tested on: Enterobacter cloacae NCTC 11 936; parameters: key to Growth: NG: no growth; 0.5: low growth; 1: moderate growth; 2: good growth; key to Col.: color of the colonies: —: no color/fluorescence; conditions: 40 mg substrate in 400 ml Columbia medium, 24 hours at 37° C.; for Col.: color of the colonies: examined visually
Description: as §1

[16] = tested on: Serratia marcescens NCTC 10 211; parameters: key to Growth: NG: no growth; 0.5: low growth; 1: moderate growth; 2: good growth; key to Col.: color of the colonies: —: no color/fluorescence; conditions: 40 mg substrate in 400 ml Columbia medium, 24 hours at 37° C.
Description: as §1

[17] = tested on: Escherichia coli NCTC 10 418; parameters: key to Growth: NG: no growth; 0.5: low growth; 1: moderate growth; 2: good growth; key to Col.: color of the colonies: —: no color/fluorescence; conditions: 40 mg substrate in 400 ml Columbia medium, 24 hours at 37° C.
Description: as §1

## 2-(4′-nitrophenyl)butadienyl-N-methylquinolinium iodide [2NPBMQ^+I]
[1]
  Growth: 1
[2]
  Growth: 0.5
  Col.: color of the colonies: —
[3]
  Growth: 1
[4]
  Growth: 1
[5]
  Growth: 1
[6]
  Growth: NG
  Col.: color of the colonies: —
[7]
  Growth: 0.5
  Col.: color of the colonies: —
[8]
  Growth: 2
  Col.: color of the colonies: Orange
[9]
  Growth: 1
[10]
  Growth: 1
  Col.: color of the colonies: —
[11]
  Growth: NG
  Col.: color of the colonies: —
[12]
  Growth: NG
  Col.: color of the colonies: —
[13]
  Growth: 2
  Col.: color of the colonies: Orange
[14]
  Growth: NG
  Col.: color of the colonies: —
[15]
  Growth: 2
  Col.: color of the colonies: Orange
[16]
  Growth: 2
[17]
  Growth: 2

## C[n+]1c(C=Cc2ccc([N+](=O)[O-])cc2)ccc2ccccc21.[I-] [2NSMQ^+I, 2-(4′-nitrostyryl)-N-methylquinolinium iodide]
[1]
  Growth: 1
[2]
  Growth: 1
[3]
  Growth: 2
[4]
  Growth: 1
[5]
  Growth: 1
[6]
  Growth: NG
  Col.: color of the colonies: —
[7]
  Growth: 0.5
[8]
  Growth: 2
[9]
  Growth: 2
  Col.: color of the colonies: Rust
[10]
  Growth: 0.5
  Col.: color of the colonies: —
[11]
  Growth: 0.5
  Col.: color of the colonies: —
[12]
  Growth: NG
  Col.: color of the colonies: —
[13]
  Growth: 2
  Col.: color of the colonies: Rust
[14]
  Growth: NG
  Col.: color of the colonies: —
[15]
  Growth: 2
[16]
  Growth: 2
[17]
  Growth: 2

## O=[N+]([O-])c1ccc(C=Cc2ccc3ccccc3n2)cc1 [2NSQ, 2-(4′-nitrostyryl)quinoline]
[1]
  Growth: 1
  Fluo.: fluorescence of the colonies: —
  Col.: color of the colonies: —
[2]
  Growth: 1
  Fluo.: fluorescence of the colonies: —
  Col.: color of the colonies: —
[3]
  Growth: 2
  Fluo.: fluorescence of the colonies: —
  Col.: color of the colonies: —
[4]
  Growth: 1
  Fluo.: fluorescence of the colonies: —
[4]; examined visually
  Col.: color of the colonies: —
[5]
  Growth: 1
  Fluo.: fluorescence of the colonies: —
  Col.: color of the colonies: —
[6]
  Growth: 1
  Fluo.: fluorescence of the colonies: —
  Col.: color of the colonies: —
[7]
  Growth: 1
  Fluo.: fluorescence of the colonies: —
  Col.: color of the colonies: —
[8]
  Growth: 2
  Fluo.: fluorescence of the colonies: —
  Col.: color of the colonies: —
[9]
  Growth: 2
  Fluo.: fluorescence of the colonies: —
  Col.: color of the colonies: —
[10]
  Growth: 1
  Fluo.: fluorescence of the colonies: —
  Col.: color of the colonies: —
[11]
  Growth: 0.5
  Fluo.: fluorescence of the colonies: —
  Col.: color of the colonies: —
[12]
  Growth: 1
  Fluo.: fluorescence of the colonies: —
  Col.: color of the colonies: —
[13]
  Growth: 2
  Fluo.: fluorescence of the colonies: —
  Col.: color of the colonies: —
[14]
  Growth: 1
  Fluo.: fluorescence of the colonies: —
  Col.: color of the colonies: —
[15]
  Growth: 2
  Col.: color of the colonies: —
[16]
  Growth: 2
[16]; examined visually
  Col.: color of the colonies: —
[17]
  Growth: 2
[17]; examined visually
  Col.: color of the colonies: —

## COc1cc([N+](=O)[O-])ccc1C=Cc1cc[n+](C)c2ccccc12.[I-] [4NMSMQ^+I, 4-(4′-nitro-2′-methoxystyryl)-N-methylquinolinium iodide]
[1]
  Growth: 0.5
  Fluo.: fluorescence of the colonies: —
  Col.: color of the colonies: —
[2]
  Growth: 2
  Fluo.: fluorescence of the colonies: —
[3]
  Growth: 1
  Fluo.: fluorescence of the colonies: —
  Col.: color of the colonies: —
[4]
  Growth: 2
  Fluo.: fluorescence of the colonies: —
[5]
  Growth: 2
  Fluo.: fluorescence of the colonies: —
  Col.: color of the colonies: —
[6]
  Growth: NG
  Fluo.: fluorescence of the colonies: —
  Col.: color of the colonies: —
[7]
  Growth: 1
  Fluo.: fluorescence of the colonies: —
  Col.: color of the colonies: —
[8]
  Growth: 1
  Fluo.: fluorescence of the colonies: —
  Col.: color of the colonies: —
[9]
  Growth: 2
  Fluo.: fluorescence of the colonies: —
  Col.: color of the colonies: —
[10]
  Growth: 2
  Fluo.: fluorescence of the colonies: —
[11]
  Growth: 0.5
  Fluo.: fluorescence of the colonies: —
  Col.: color of the colonies: —
[12]
  Growth: 2
  Fluo.: fluorescence of the colonies: —
[13]
  Growth: 0.5
  Fluo.: fluorescence of the colonies: —
  Col.: color of the colonies: —
[14]
  Growth: 2
  Fluo.: fluorescence of the colonies: —
[15]
  Growth: 2
[16]
  Growth: 2
[17]
  Growth: 2
